One assay deals with human skin. Briefly: Clinical trial of skin-care efficacy of emulsion containing compound K. In kind it is in vivo. As for the experimental part: In order to evaluate the efficacy of the cosmetic composition containing compound K, a clinical trial was conducted with forty-nine (49) healthy Korean females aged from 31 to 37 years and having facial wrinkle and fine wrinkle. They were divided into three groups by skin type: normal skin, dry skin and combination skin and used two kinds of oily-water emulsions containing 0.03% compound K or none. Before the trial, all the volunteers were evaluated for facial wrinkle and fine wrinkle with a global photodamage score. All the scores were obtained before use and 4, 8 and 12 weeks after use. Each volunteer applied test samples onto the facial skin twice per day (morning and evening) at their homes, and particularly onto the wrinkles of the eye rims. Skin-care efficacies such as facial wrinkle, fine wrinkle, hydration, elasticity, smoothness, roughness and brightness were evaluated by the volunteers and skin expert inspectors. Difference before and after using topical samples and improvement were determined by photometry evaluation with Camscope® (model DCS-105) and by image analysis of silicon replica with Skin-Visiometer SV 600 (Courage & Khazaka, Germany).

The test system of a further assay is HaCaT cells. Briefly: Hyaluronic acid production in cultured HaCaT cells, bHABP immunocytochemical staining. In kind it is cell-based, human. The following applies: 1 μM compound K, immunocytochemical method. Here is the method:
(§1) HaCaT and HDF cells were washed with PBS then fixed in a fixative with 2% paraformaldehyde(v/v) and 0.5% glutaraldehyde(v/v) at room temperature for 20 min. After fixation, the cells were washed three times for 2 min each with 0.1 M sodium phosphate buffer (pH7.4), then blocked in 1% bovine serum albumin (w/v) containing 0.1% Triton X-100 (v/v) in the same buffer at room temperature for 30 min. Hyaluronan staining was carried out with a specific probe of biotinylated hyaluronan binding protein (bHABP) (Seikagaku, Tokyo, Japan). The bHABP probe, diluted to 5 μg/ml in 3% bovine serum albumin (w/v), was added to the fixed cells and was incubated overnight at 4° C. After washing, avidin-fluorescein isothocyanate (FITC) was added.
(§2) HaCaT cells (FIG. 3a, FIG. 3b) and HDF cells (FIG. 3c, FIG. 3d) were cultured in the presence of 1 μM compound K (FIG. 3b, FIG. 3d) or in the absence of compound K (FIG. 3a, FIG. 3c).

Another assay deals with hairless mouse skin. Nature of the assay: Production of hyaluronic acid in hairless mouse skin, bHABP immunohistochemical staining and image analysis. In kind it is in vivo. The conditions noted are these: hairless mouse back skin, 1%(w/v) compound K solution topically. Here is the method:
Male albino Hos:hr-1 mice, 30 weeks old, were purchased from Biogenomics (Seoul, Korea) and had unrestricted access to standard rodent chow and water. After one week of acclimation under controlled conditions of 24±2° C. and 55±10% humidity, 200 μl of 1%(w/v) compound K solution in the vehicle (1,3-BG:ethanol-7:3) was topically applied onto the back of the mouse two times for 2 days. 24 hours after the final administration, each skin sample was collected.
Hyaluronan staining was carried out with bHABP(Seikagaku). Each skin sample was fixed with 2% formaldehyde and 0.5% glutaraldehyde in PBS, embedded and sectioned. After deparaffinization, sections were incubated in 0.3% H2O2 in methanol at room temperature for 30 min, washed with PBS, then blocked in 1% bovine serum albumin. Subsequently the sections were incubated in […] bHABP in PBS at 4° C. then, after washing, incubated with streptoavidin-peroxidase, diluted to 1/300 in PBS at room temperature, for 30 min. […]
Stained slides were quantitatively characterized via digital image analysis using ImagePro-Plus (Media Cybernetics, Silver Spring, Md.). […] Staining score is determined by the following formula 1: Intensity of stain X (total stained area/total area) Equation 1
One-way ANOVA with post-hog Duncan test was performed using SigmaStat (SPSS Inc., Chicago, Ill.). Data were expressed as the mean±SEM. […]

The test system of another assay is HDF cells. Nature of the assay: Hyaluronic acid production in cultured HDF cells, bHABP immunocytochemical staining. In kind it is cell-based, human. The following applies: 1 μM compound K, immunocytochemical method. As for the experimental part:
as §1, §2

In another assay the test system is HAS1. Briefly: Quantitative RT-PCR of HAS1 mRNA in HaCaT cells. Type of assay: cell-based, human. The following applies: 1 μM compound K, 24 or 48 hours. Here is the method: (§3) The cells were cultured in Dulbecco's modified Eagle's medium (DMEM) supplemented with 10% fetal bovine serum (HyClone), sodium bicarbonate (3.6 g/l) and antibiotics of streptomycin (100 μg/ml) and penicillin (100 U/ml) (Life Technologies, Inc.) at 37° C. in a humidified atmosphere containing 5% CO2 and 95% air. The culture was changed with fresh medium every 3 days. On reaching the maximum cell-density, the cells were recultured at a 1:5 division ratio. 48 hours before treatment with compound K, the cells were seeded into a tissue culture flask at 1×10^5 cells per 75 cm^2 and cultured in the medium with 10% fetal bovine serum for 24 hours. Subsequently, the cells were cultured in the serum-free medium for another 24 hours and then in fresh serum-free medium supplemented with 1 to 5 μM of compound K for 3, 6, 12, 24 or 48 hours. […]
(§4) HaCaT cells and HDF cells were washed twice with phosphate buffered saline (PBS) (Life Technologies, Inc.), and total cellular RNA was isolated with TRizol® reagent (GibcoBRL Life Technologies, Grand Island, N.Y.) according to manufacturer's instructions. RNA concentration was measured by spectrophotometry and RNA integrity was checked by agarose gel electrophoresis.
(§5) Quantitated total RNA was reverse transcribed, then RT-PCR was performed using HAS1-, HAS2- and HAS3-specific primers. […]

The next assay concerns HAS3. Nature of the assay: Quantitative RT-PCR of HAS3 mRNA in HaCaT cells. The conditions noted are these: 1 μM compound K, 24 or 48 hours. Type of assay: cell-based, human. Here is the method:
as §3, §4, §5

For assay [1], the system named is HAS2 gene. Briefly: Quantitative RT-PCR of HAS2 mRNA in fibroblast cell line HDF. Type of assay: cell-based, human. The following applies: HDF cells, treatment with compound K for 24 hours, in comparison with no treatment. Here is the method: as §3, §4, §5
For assay [2], the system named is HAS2 gene. Briefly: Quantitative RT-PCR of HAS2 mRNA in keratinocyte cell line HaCaT. The conditions noted are these: HaCaT cells; for increase in HAS2 transcription: 1 μM compound K. Type of assay: cell-based, human. As for the experimental part:
The cells were cultured in Dulbecco's modified Eagle's medium (DMEM) supplemented with 10% fetal bovine serum (HyClone), sodium bicarbonate (3.6 g/l) and antibiotics of streptomycin (100 μg/ml) and penicillin (100 U/ml) (Life Technologies, Inc.) at 37° C. in a humidified atmosphere containing 5% CO2 and 95% air. The culture was changed with fresh medium every 3 days. On reaching the maximum cell-density, the cells were recultured at a 1:5 division ratio. 48 hours before treatment with compound K, the cells were seeded into a tissue culture flask at 1×10^5 cells per 75 cm^2 and cultured in the medium with 10% fetal bovine serum for 24 hours. Subsequently, the cells were cultured in the serum-free medium for another 24 hours and then in fresh serum-free medium supplemented with 1 to 5 μM of compound K for 3, 6, 12, 24 or 48 hours. As a control, the cells were cultured in the medium supplemented with 0.01% vehicle (dimethylsulfoxide, DMSO). In the control, no effect of DMSO on cell growth and differentiation was observed.
as §4
Quantitated total RNA was reverse transcribed, then RT-PCR was performed using HAS1-, HAS2- and HAS3-specific primers. In brief, 4 μg of total RNA was reverse transcribed in 25 μl of reaction mixture containing 2.5 U/μl Superscript II reverse transcriptase (Invitrogen, Carlsbad, Calif.), 1 U/μg RNase inhibitor, 5 mM MgCl2, 50 mM KCl, 10 mM Tris-HCl (pH8.3), 2.5 μM oligo(dT) primers and 1 mM dNTPs. The reaction mixture was gently incubated at 42° C. for 60 min, to be subjected to reverse transcription. Then, the reverse transcriptase was inactivated by heating at 85° C. for 5 min.
Subsequently, 5 μl of the resulting mixture was subjected to PCR. […]

Setting [3] is: emulsion with 0.03% compound K, after 8 weeks of use.

Regarding `CC(C)=CCC[C@](C)(OCC1OC(CO)C(O)C(O)C1O)C1CC[C@]2(C)C1C(O)CC1C3(C)CCC(O)C(C)(C)C3CCC12C` (stereo partly drawn) [compound K, 20-O-β-D-glucopyranosyl-20(S)-protopanaxadiol], the “wrinkle, hydration, elasticity, smoothness and brightness of human skin” value in the assay with human skin (compound K-containing topical composition applied onto the human skin) is on record as “improved”. In addition, in the assay on human skin (emulsion with 0.03% compound K), the “volunteers answering improvement in skin brightness” value came to 68%, the “volunteers answering improvement in skin elasticity” value was 68%, the “volunteers answering improvement in skin roughness” value stood at 94% and the “volunteers answering improvement in skin smoothness” value was 92%. Besides, in the assay with human skin (emulsion with 0.03% compound K), the “volunteers answering increase in skin moisturizing capacity” value came out at 88%. Moreover, the “facial wrinkle and fine wrinkle, global photodamage score by skin expert inspectors” value in the assay on human skin (emulsion with 0.03% compound K twice per day on facial skin, 12 weeks of use versus initial values and control emulsion) is reported as “statistically significant decrease”. In addition, in the assay with human skin (setting [3]), the “total wrinkle in skin replica analysis” value is reported as “decreased statistically significantly”; the “volunteers giving positive and affirmative estimate” value is 76%. Further, the “volunteers giving positive and affirmative estimate” value in the assay on human skin (emulsion with 0.03% compound K, after 12 weeks of use) is reported as 92%. In the assay with HaCaT cells, the “production of hyaluronic acid in cultured cells” value was “increased production of hyaluronic acid was confirmed”. The “hyaluronic acid in skin (immunohistochemical staining)” value in the assay on hairless mouse skin is reported as “significantly increased”. For the same compound, the “production of hyaluronic acid in cultured cells” value in the assay with HDF cells is given as “increased production of hyaluronic acid was confirmed”. For the same compound, the “effect on HAS1 mRNA level” value with HAS1 was “did not influence”. The “effect on HAS3 mRNA level” value in the assay on HAS3 is recorded as “did not influence”. For the same compound, the “increase in HAS2 gene expression (HAS2 mRNA) versus control” value in the assay with HAS2 gene [1] was 2.5 times. Besides, in the assay on HAS2 gene [2] (24 hours incubation), the “increase in HAS2 transcription” value is reported as “about 3 times”. Also, in the assay on HAS2 gene [2] (48 hours incubation), the “increase in HAS2 transcription” value is “about 5 times”. Also, in the assay on HAS2 gene [2] (treatment with compound K for 24 hours, in comparison with no treatment), the “increase in HAS2 gene expression (HAS2 mRNA) versus control” value was determined as 3 times.

Values taken from patent publication US8173607B2, “Promoter for the production of hyaluronic acid containing ginsenoside compound K” (Amorepacific Corporation, priority 2002, dated 2012).
